Assay results reported in patent US5426113A, “Method of preventing ulcer formation caused by nonsteroidal antiinflammatory drugs employing tetrazol-benzothiophene carboxamide compounds” (Warner-Lambert Company, priority 1994, dated 1995).
Entries after “also recorded” stand apart in the source; their conditions may differ. Where two headings read alike, the source gives them in different places.

Columns and labels:
[1] = test system: stimulated acid secretion; assay: Dimaprit-stimulated gastric fistula beagle dog model; format: in vivo
Text: All parameters of gastric secretion appeared to be practically identical to those observed in the vehicle-only controls.

[2] = target: T1, MAC-1 (Homo sapiens, UniProt P05107+P11215); details: Wright C. D., et al., Keystone symposium 1994; cited from earlier work
T1 construct: endogenous in cells

[3] = test system: NSAID-induced gastric damage; details: indomethacin and aspirin in rats; Low J. E., et al., 1993; cited from earlier work
[4] = Plasma protein binding; format: in vitro ADME; details: rat, dog, sheep, and human
[5] = test system: NSAID-induced gastric damage; assay: Gastric cytoprotection in animal models (NSAID-induced gastric damage); format: in vivo; details: Rattus norvegicus, po; range over models
Experimental: (§1) Fifteen minutes later, the animals were orally challenged with a single dose of 20 mg/kg indomethacin or 288 mg/kg aspirin. The animals were euthanized either at 4 hours (indomethacin) or 30 minutes (aspirin) later and the amount of gastric damage was assessed using image analysis.

[6] = test system: human basophil histamine release; assay: Human basophil histamine release stimulated with anti-IgE; format: cell-based
[7] = test system: leukocyte adhesion in the animal's mesenteric post-capillary venules; assay: NSAID (indomethacin)-induced leukocyte adhesion in rat mesenteric post-capillary venules, intravital microscopy; format: in vivo; details: indomethacin 10 minutes later
Text: In these studies, oral treatment of rats with the NSAID indomethacin results in leukocyte adhesion in the animal's mesenteric post-capillary venules. This can be observed and measured using the technique of Intravital microscopy.

[8] = test system: indomethacin-induced gastric damage; assay: Indomethacin-induced gastric damage model; format: in vivo; details: Rattus norvegicus; oral, 15 minutes before 20 mg/kg indomethacin PO; assessed at 4 hours; read-out: ED50 cytoprotection, indomethacin
Experimental: as §1

[9] = test system: gastrointestinal tissues (stomach, small and large intestines); assay: Whole body autoradiography after intravenous radiolabeled Example 1; format: in vivo
[10] = test system: basal acid secretion; assay: Shay rat model of basal acid secretion; format: in vivo; details: 50 or 200 mg/kg PO; pylorus ligated 1 hour later, acid content 4 hours later
Experimental: This has been tested in two different animal models. In the rat, Example 1 was tested in the Shay rat model of basal acid secretion. […] One hour later the animals were anesthetized and the pyloric sphincter to the stomach was ligated. The stomachs were removed 4 hours later and their acid content determined.

[11] = test system: aspirin-induced gastric damage; assay: Aspirin-induced gastric damage model (aspirin erosion model); format: in vivo; details: Rattus norvegicus, 0.5 h
Experimental: as §1
Additional compounds of Formula I were tested in both the MAC-1 and the aspirin-induced gastric damage model (Table 1 and FIG. 4). Compounds which were active in the MAC-1 assay were also active in the gastric cytoprotective assay.

[12] = test system: animal disease models (asthma, allergy, arthritis, adult respiratory distress syndrome (ARDS), and cardiac reperfusion); assay: Animal disease models (asthma, allergy, arthritis, ARDS, cardiac reperfusion); format: in vivo
[13] = test system: human colonic adenocarcinoma (CaCO-2) cells
Experimental: [^14 C]Example 1 (22.9 μg/mL) was loaded on to either the apical (luminal) or basolateral (vascular) of the monolayer. Samples were obtained over 250 minutes from either side of the chamber in each experiment.

[14] = target: T1, MAC-1; assay: Inhibition of MAC-1 mediated adhesion of FMLP-stimulated neutrophils to KLH-coated plastic; format: cell-based; details: 1 h, read-out: increase of MAC-1 dependent adherence to KLH-coated plastic
[15] = po, Table 1, aspirin-induced gastric damage model, read-out: Gastric Cytoprotective Effect (ED50, mg/kg PO)

T1 sequence (P05107 23-769, other chains not shown): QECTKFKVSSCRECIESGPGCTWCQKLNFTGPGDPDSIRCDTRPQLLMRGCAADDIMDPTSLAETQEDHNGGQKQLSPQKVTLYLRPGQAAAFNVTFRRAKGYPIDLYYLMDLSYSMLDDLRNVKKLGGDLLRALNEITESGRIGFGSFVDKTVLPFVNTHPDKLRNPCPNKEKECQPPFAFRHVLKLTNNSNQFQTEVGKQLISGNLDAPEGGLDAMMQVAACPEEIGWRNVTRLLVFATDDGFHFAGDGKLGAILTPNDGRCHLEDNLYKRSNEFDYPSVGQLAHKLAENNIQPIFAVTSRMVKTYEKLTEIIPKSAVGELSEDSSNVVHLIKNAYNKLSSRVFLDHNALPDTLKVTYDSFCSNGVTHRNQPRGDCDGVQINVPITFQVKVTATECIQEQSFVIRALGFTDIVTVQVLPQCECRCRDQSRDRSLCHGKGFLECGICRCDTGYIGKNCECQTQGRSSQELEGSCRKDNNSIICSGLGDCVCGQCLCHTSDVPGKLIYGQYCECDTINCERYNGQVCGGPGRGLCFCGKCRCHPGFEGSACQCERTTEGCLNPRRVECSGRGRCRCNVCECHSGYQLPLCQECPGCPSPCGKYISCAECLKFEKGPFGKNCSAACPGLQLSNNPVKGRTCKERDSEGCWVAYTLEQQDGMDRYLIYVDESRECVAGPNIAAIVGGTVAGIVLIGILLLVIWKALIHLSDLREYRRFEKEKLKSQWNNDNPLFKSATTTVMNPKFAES

COc1ccc2sc(C(=O)Nc3nnn[nH]3)c(OC(C)C)c2c1 [Example 1, 5-Methoxy-3-(1-methylethoxy)-N-1H-tetrazol-5-yl-benzo[b]thiophene-2-carboxamide]
changes in gastric secretion ([1]; 0.1, 1.0, or 10 mg/kg PO, dimaprit-stimulated): no significant changes
inhibition of neutrophil adhesion mediated by MAC-1 [2]: can inhibit neutrophil adhesion; also recorded: inhibits neutrophil adhesion
gastric cytoprotective effects against damage caused by NSAIDs [3]: gastric cytoprotective effects
fraction unbound [4]: 0.01 to 0.02
ED50 [5]: 0.01 to 1 mg/kg
IC50 ([6]; Homo sapiens, anti-IgE stimulated, absence of serum): 300 nM
inhibitory effect on human basophil histamine release in the presence of serum ([6]; increasing concentration of serum (5-50%)): significantly reduced
inhibition of indomethacin-induced leukocyte adhesion ([7]; 1 mg/kg PO, 40 and 70 minute time point): no protective effects
inhibition of indomethacin-induced leukocyte adhesion ([7]; 5 or 10 mg/kg PO): complete inhibition
ED50 [8]: 1 mg/kg
time to radiolabeled material associated with gastrointestinal tissues ([9]; rapid): 5 min
levels of radiolabeled material associated with gastrointestinal tissues ([9]; stomach, small and large intestines): high levels
effect on basal acid secretion [10]: no effect
ED50 ([11]; oral, 15 minutes before 288 mg/kg aspirin PO, assessed at 30 minutes, read-out: ED50 cytoprotection, aspirin): 0.01 mg/kg
ED50 ([12]; IV): 5 to 20 mg/kg
ED50 ([12]; oral): 30 to 100 mg/kg
amount on apical side compared to basolateral side [13]: significantly more

COc1ccc2c(OC(C)C)c(C(=O)Nc3nnn[nH]3)sc2c1 [Example 2, 6-Methoxy-3-(1-methylethoxy)-N-1H-tetrazol-5-yl-benzo[b]thiophene-2-carboxamide]
ED50 [11, 15]: 1 mg/kg

COc1cc2sc(C(=O)Nc3nnn[nH]3)c(OC(C)C)c2cc1OC [Example 3, 5,6-Dimethoxy-3-(1-methylethoxy)-N-1H-tetrazol5-yl-benzo[b]thiophene-2-carboxamide]
ED50 [11, 15]: 1 mg/kg

COc1cc2sc(C(=O)Nc3nnn[nH]3)c(Oc3ccccc3)c2cc1OC [Example 4, 5,6-Dimethoxy-3-phenoxy-N-1H-tetrazol-5-yl-benzo[b]thiophene-2-carboxamide]
ED50 [11, 15]: 0.01 mg/kg

CSCC[C@H](NC=O)C(=O)N[C@@H](CC(C)C)C(=O)N[C@@H](Cc1ccccc1)C(=O)O [N-formyl-methionyl-leucyl-phenylalanine]
activation at 0.01 µM [14]: 49%

CN(C)CCCSC(=N)N [dimaprit]
gastric secretion pH ([1]; constant intravenous 0.2 mg/kg hr): 1.0

CNC(=C[N+](=O)[O-])NCCSCc1ccc(CN(C)C)o1 [ranitidine]
increase in gastric pH ([1]; 1.5 mg/kg PO, dimaprit 0.2 mg/kg hr IV): 4 units
